Data taken from patent publication US20070254895A1, “Crystalline solvate of glucokinase activator” (priority 2006, published 2007).
Several values for one entry are separate records, joined by “and”; a condition that tells them apart may be missing. Equal entries are not always repeated.

Test: Stability samples of IPA solvate analyzed for IPA content and heat of fusion
Format: physicochemical
Description: Differential scanning calorimetry was performed using Perkin Elmer DSC-7 and Diamond DSC, using sealed aluminum pan with a hole in the lid. Sample was heated at a rate of 10° C./min.
The stability sample obtained at various time points and conditions were analyzed for the IPA level and heat of fusion (Table 6). These two variables were plotted against each other to see the correlation (FIG. 17).
Sample was stored in a double PE bag with either metal drum or fiber drum as the container.

[1] = 40° C./75% RH/Fiber drum, double PE bag, 1 month

| SMILES | IPA (% w/w) (25° C./60% RH/Metal, 3 months) | ΔH (J/g) heat of fusion (25° C./60% RH/Metal, 3 months) [J/g] | IPA (% w/w) (25° C./60% RH/Metal, 6 months) | ΔH (J/g) heat of fusion (25° C./60% RH/Metal, 6 months) [J/g] | IPA (% w/w) (40° C./75% RH/Metal, 1 month) | ΔH (J/g) heat of fusion (40° C./75% RH/Metal, 1 month) | IPA (% w/w) (40° C./75% RH/Metal, 3 months) | ΔH (J/g) heat of fusion (40° C./75% RH/Metal, 3 months) | IPA (% w/w) (40° C./75% RH/Metal, 6 months) | ΔH (J/g) heat of fusion (40° C./75% RH/Metal, 6 months) | IPA (% w/w) (50° C./Metal, 1 month) | ΔH (J/g) heat of fusion (50° C./Metal, 1 month) | also measured |
| --- | --- | --- | --- | --- | --- | --- | --- | --- | --- | --- | --- | --- | --- |
| CC(C)O.CS(=O)(=O)c1ccc([C@@H](C[C@H]2CCC(=O)C2)C(=O)Nc2cnccn2)cc1Cl [Lot 1] | 12 | 102.665 | 11.9 | 101.346 | 11.1 | 89.35 J/g | 7.3 | 53.712 J/g and 51.302 J/g and 47.200 J/g | 5 | 32.201 J/g and 29.011 J/g and 26.128 J/g | 12 | 102.033 J/g and 99.554 J/g | IPA (% w/w) (5° C./Fiber, 6 months): 12.2 % w/w; ΔH (J/g) heat of fusion (5° C./Fiber, 6 months): 104.917 J/g; IPA (% w/w) (25° C./60% RH/Fiber, 3 months): 12 % w/w; ΔH (J/g) heat of fusion (25° C./60% RH/Fiber, 3 months): 99.861 J/g; IPA (% w/w) (25° C./60% RH/Fiber, 6 months): 12 % w/w; ΔH (J/g) heat of fusion (25° C./60% RH/Fiber, 6 months): 98.112 J/g; IPA (% w/w) (30° C./60% RH/Fiber, 10 months): 11.2 % w/w; ΔH (J/g) heat of fusion (30° C./60% RH/Fiber, 10 months): 87.929 J/g; IPA (% w/w) (30° C./60% RH/Metal, 10 months): 11.5 % w/w; ΔH (J/g) heat of fusion (30° C./60% RH/Metal, 10 months): 99.538 J/g; IPA (% w/w) [1]: 8.9 % w/w; ΔH (J/g) heat of fusion [1]: 65.084 J/g; IPA (% w/w) (40° C./75% RH/Fiber, 3 months): 4.4 % w/w; ΔH (J/g) heat of fusion (40° C./75% RH/Fiber, 3 months): 28.733 J/g and 29.404 J/g and 26.416 J/g and 24.713 J/g; IPA (% w/w) (40° C./75% RH/Fiber, 6 months): 4 % w/w; ΔH (J/g) heat of fusion (40° C./75% RH/Fiber, 6 months): 26.529 J/g; IPA (% w/w) (50° C./Fiber, 1 month): 11.8 % w/w; ΔH (J/g) heat of fusion (50° C./Fiber, 1 month): 105.445 J/g |
| CC(C)O.CS(=O)(=O)c1ccc([C@@H](C[C@H]2CCC(=O)C2)C(=O)Nc2cnccn2)cc1Cl [Lot 3] | 12 | 104.847 | 12 | 102.406 | 11.6 | 105.006 J/g and 102.972 J/g | 11.3 | 103.326 J/g and 103.52 J/g | 8.4 | 65.867 J/g and 67.851 J/g and 61.796 J/g | 12 | 100.639 J/g | IPA (% w/w) (5° C./Metal, 3 months): 12.1 % w/w; ΔH (J/g) heat of fusion (5° C./Metal, 3 months): 107.801 J/g; IPA (% w/w) (5° C./Metal, 6 months): 12.1 % w/w; ΔH (J/g) heat of fusion (5° C./Metal, 6 months): 106.157 J/g |
